Columns and labels:
VERO cells = assay: MTT cytotoxicity on VERO cells; type: cell-based, African green monkey; conditions: Chlorocebus sabaeus, 72 h
Experimental: Vero cells were derived from the kidney of an African green monkey, cells were maintained in Dulbecco’s Modified Eagle’s Medium (DMEM), supplemented with 10% heat-inactivated FBS and penicillin-streptomycin solution 1% at 37 °C, 5% CO2 atmosphere and > 95% humidity. We evaluated through a colorimetric method the effect of compounds 8–23 on the promastigotes of L. brasiliensis. Briefly, 96-well plates were used, where 2 × 10^6 parasites/mL were seeded. A concentration of 50 μM was used for each compound and an incubation time of 96 h at 29 °C. 3-(4,5-dimethylthiazol-2-yl)-2,5-diphenyl tetrazolium bromide (MTT) 1 μg/mL was added and incubated in darkness for 4 h, acidic isopropanol (4N) was added and the plate was read at 570 nm in a spectrophotometer Synergy HT (Biotek). Miltefosine was used as a reference drug. The EC50 calculation of the selected compound was performed using growth curves. Direct counting was used to monitor the proliferation of parasites, three independent experiments were performed for each concentration of the compounds evaluated. The in vitro evaluations of compounds toxicity by MTT in VERO and BMDM cells follow a methodology described above with some modifications. The selectivity index was calculated with SI = CC50/EC50, where CC50 was the maximum concentration range of compounds 10, 21–23 used to evaluate cytotoxicity in VERO and BMDM cells. The trypanocidal activity of compounds 8–23 was evaluated on the viability of T. cruzi epimastigotes through a colorimetric method adapted with minor modifications. 2 × 10^6 parasites/mL were seeded in a 96-well plate, adding 50 μM of each derivative dissolved in DMSO (final concentration remained below 1%). The plate was incubated for 96 h at 29 °C. Then, 1 μg/mL of 3-(4,5-dimethylthiazol-2-yl)-2,5-diphenyl tetrazolium bromide (MTT) was added and incubated in darkness for 4 h. After this time, acidic isopropanol (4N) was added and the plate was read at 570 nm in a spectrophotometer Synergy HT (Biotek). Benznidazole was used as a reference drug. The in vitro evaluations of compounds toxicity by MTT in VERO and BMDM cells follow a methodology described above with some modifications. Cells were counted in suspension and seeded at 20 × 10^3 cells/well. The test was carried out in triplicate on 96-well microplates in different concentrations: 50 μM, 100 μM, 200 μM and 300 μM, untreated cells and reference drug (benznidazole) controls.

CEM-DNR = assay: MTS antiproliferative assay CEM-DNR; type: cell-based; conditions: Homo sapiens, 72 h of incubation, daunorubicin-resistant
Source text: (§1) The cell lines used were acquired from the American Type Culture Collection (ATCC), CCRF-CEM (T lymphoblastic leukemia), K562 ([…]), U2OS (osteosarcoma), HCT116 (colon carcinoma), A549 (lung adenocarcinoma) and HCT116p53−/− (HCT116 cell line mutated in p53) Horizon Discovery Ltd., (Waterbeach, Cambridge, United Kingdom).
(§2) In our laboratory, IMTM, we generated the daunorubicin-resistant subline of CCRF-CEM cells (CEM-DNR bulk) and paclitaxel-resistant subline K562-TAX, as described previously. […] Both ABC transporters are involved in drug resistance. As a control, human fibroblasts MRC-5 and BJ cell lines were used. […] Adherent cells were passaged using PBS containing 0.25% trypsin plus 0.01% EDTA (ethylenediamine tetraacetic acid) every 2–3 days.
(§3) The antiproliferative activity of compounds was determined using a standard 3-(4,5-dimethylthiazol-2yl)-5-(3-carboxymethoxyphenyl)-2-(4-sulfophenyl)-2H-tetrazolium (MTS) reduction assay on a robotic high throughput screening platform (HighResBio, Boston, MA, USA) following treatment of cells for 3–7 days. The IC50 values were calculated from the appropriate dose–response curves with Dotmatics software (San Diego, CA, USA).

A549 = assay: MTS antiproliferative assay A549; type: cell-based, human; conditions: 72 h of incubation
Source text: as §1, §2, §3

A549 cell line = assay: Annexin V-FITC/PI flow cytometry apoptosis assay A549; type: cell-based, human; conditions: 24 h
Experimental: Cell death was assessed after 24 h incubation with compounds 18 and 22. Apoptosis was analyzed by flow cytometry using annexin V-FITC and propidium iodide (PI). Early apoptosis was defined by annexin V-FITC expression and, necrosis by PI expression, late apoptosis by coexpression of annexin V/PI. Doxorubicin and quercetin were used as positive controls. The results of a typical flow cytometry analysis of both compounds are illustrated in Figure 2 and Figure 3. An increase in early apoptosis and late apoptosis was observed; necrosis was less predominant. The results are summarized in Tables S1 and S2 (Supplementary Materials). The expression of annexin V was different depending on the compound used. K562, A549 cell lines were treated as described by the manufacturer (Santa Cruz Biotechnology), washed, and resuspended in annexin V binding buffer (0.01 M HEPES, 0.14 M NaCl, and 2.5 mM CaCl2) with the subsequent incubation of annexinV-FITC and then PI. An Epics XL cytometer (Beckman Coulter, Indianapolis, IN, USA) was used for the analysis. Untreated cells were the negative controls, and doxorubicin (Dox) (1 μM), and quercetin (QC) (50 μM) were the positive controls. Early apoptosis refers to annexin V expression, late apoptosis, the coexpression of annexin V and PI, and necrosis the sole expression of PI. […] The experiments were performed as described before. To avoid the unwanted effects of DMSO, the concentrations of the compounds were never higher than 100 μM.

COc1ccc2c(c1)CC/C(=C\c1cccnc1Oc1ccc(Cl)cc1)C2=O [Compound 22, (E)-2-{[2-(4-Chlorophenoxy)pyridin-3-yl]methylene}-3,4-dihydro-6-methoxynaphthalen-1(2H)-one]
EC50 (VERO cells): > 100 µM
IC50 (CEM-DNR): 22.5 ± 4.77 µM
IC50 (A549): 9.74 ± 1.28 µM
IC50 (A549; Homo sapiens, A549, 72 h): 9.64 to 9.74 µM
AV+/IP+ (late apoptosis) (A549 cell line; A549, 10 µM): 23.30%
AV+/IP- (early apoptosis) (A549 cell line; A549, 10 µM): 13.80%
AV-/IP+ (necrosis) (A549 cell line; A549, 10 µM): 8.44%
AV+/IP+ (late apoptosis) (A549 cell line; A549, 25 µM): 78.30%
AV+/IP- (early apoptosis) (A549 cell line; A549, 25 µM): 9.36%
AV-/IP+ (necrosis) (A549 cell line; A549, 25 µM): 9.32%
